System: AMPA receptor
Experiment: In vivo electrophysiology (field EPSP in dentate gyrus of anesthetized animals)
Details: 10 mpk i.p., perforant path stimulation
Experimental: The electrophysiological effects of the invention compounds were tested in vivo in anesthetized animals according to the following procedures. Animals are maintained under anesthesia by phenobarbital administered using a Hamilton syringe pump. Stimulating and recording electrodes are inserted into the perforant path and dentate gyrus of the hippocampus, respectively. Once electrodes are implanted, a stable baseline of evoked responses are elicited using single monophasic pulses (100 μs pulse duration) delivered at 3/min to the stimulating electrode. Field EPSPs are monitored until a stable baseline is achieved (about 20-30 min), after which a solution of test compound is injected intraperitoneally and evoked field potentials are recorded. Evoked potentials were recorded for approximately 2 h following drug administration or until the amplitude of the field EPSP returns to baseline. In the latter instance, it is common that an iv administration is also carried out with an appropriate dose of the same test compound. Invention compounds were assayed in the in vivo electrophysiology assay described above and data for representative test compounds is shown in the Table.
The electrophysiological effects of invention compounds were tested in vivo in anesthetized animals according to the following procedures.
Animals are maintained under anesthesia by phenobarbital administered using a Hamilton syringe pump. Stimulating and recording electrodes are inserted into the perforant path and dentate gyrus of the hippocampus, respectively. Once electrodes are implanted, a stable baseline of evoked responses are elicited using single monophasic pulses (100 μs pulse duration) delivered at 3/min to the stimulating electrode. Field EPSPs are monitored until a stable baseline is achieved (about 20-30 min), after which a solution of test compound is injected intraperitoneally and evoked field potentials are recorded. Evoked potentials are recorded for approximately 2 h following drug administration or until the amplitude of the field EPSP returns to baseline. […]

Compound	In vivo Electrophysiology: % increase in the amplitude of the field EPSP in the dentate gyrus of rat
O=C(c1ccc2nonc2c1)N1C2CCC1COC2 [Example 1, [2,1,3]-Benzoxadiazol-5-yl(3-oxa-8-azabicyclo[3.2.1]oct-8-yl)methanone]	17%
O=C(c1ccc2nonc2c1)N1C2CCCC1COC2 [Example 2, [2,1,3]-Benzoxadiazol-5-yl(3-oxa-9-azabicyclo[3.3.1]non-9-yl)methanone]	16%
O=C(c1ccc2nonc2c1)N1C2COCC1COC2 [Example 3, [2,1,3]-Benzoxadiazol-5-yl(3,7-dioxa-9-azabicyclo[3.3.1]non-9-yl)methanone]	15%

Reference: US8168632B2, “Bicyclic amide derivatives for the treatment of respiratory disorders” (Cortex Pharmaceuticals, Inc., priority 2007, dated 2012)
